{
  "source": "patent US20030144255A1",
  "about": "“Compositions for prevention and treatment of dementia” (priority 2002, published 2003)",
  "key": {"aged rats [1]": {"tested_on": "aged rats", "test": "Passive avoidance learning test in aged rats", "format": "in vivo, rat", "conditions": "aged male rats of transgenic strain, test started on day 14 of treatment, vs control group", "protocol": "(§1) Male (3 to 27 months old) rats of transgenic strain were used. The aged rats were divided into the following four groups.\n(§2) 1) Control group: Repeated administration of placebo pill.\n(§3) 2) 4,4′-diaminodiphenylsulphone group: Repeated oral administration of 4,4 -diaminodiphenylsulphone 1 mg/kg.\n(§4) 3) Cholinesterase inhibitor group: Repeated oral administration of donepezil 0.3 mg/kg.\n(§5) 4) Combination group: Repeated oral administration of 4,4′-diaminodiphenylsulphone 3 mg/kg and donepezil 0.3 mg/kg.\n(§6) In the combination group, 4,4′-diaminodiphenylsulphone was administered 30 minutes after administration of donepezil.\n(§7) Passive avoidance learning test was started on day 14 of treatment, and Morris water maze learning test on day 20 of treatment.\n(§8) On each day of experiment, 4,4′-diaminodiphenylsulphone and a cholinesterase inhibitor were administered 30 minutes and 1 hour, respectively, before initiation of the trial.\nThe passive avoidance learning test was performed using a chamber consisting of light and dark compartments. […]\nIn each trial, the latency from opening of the slide door until the animal moved to the dark compartment (step-through latency) was measured."}, "aged rats [2]": {"tested_on": "aged rats", "test": "Morris water maze learning test in aged rats", "format": "in vivo, rat", "conditions": "aged male rats of transgenic strain, test started on day 20 of treatment, vs control group", "protocol": "as §1, §2, §3, §4, §5, §6, §7, §8\nSame animals used in the passive avoidance test were subjected for the water maze task. However, some rats can not swim well in the water tank, thus they were excluded in the water maze task. The water maze learning test was performed on young rats (saline, 10 animals) and aged rats (control group, 9 animals; 4,4′-diaminodiphenylsulphone group, 9 animals; Compound B group, 8 animals; combination group, 8 animals). […]"}},
  "data": [
    {"smiles": "COc1cc2c(cc1OC)C(=O)C(CC1CCN(Cc3ccccc3)CC1)C2.Cl", "note": "(stereo not shown) [donepezil, 2,3-dihydro-5,6-dimethoxy-2-[[1-(phenylmethyl)-4-piperidinyl]methyl]-1H-inden-1-one hydrochloride]", "values": [
      {"measurement": "passive avoidance learning deficit (step-through latency / avoidance time)", "setting": "aged rats [1]; repeated oral 0.3 mg/kg", "value": "significant improvement of the learning deficit"},
      {"measurement": "water maze learning deficit (latency to find platform submerged in the water)", "setting": "aged rats [2]; repeated oral 0.3 mg/kg", "value": "significant improvement in water maze learning deficit"}
    ]},
    {"smiles": "Nc1ccc(S(=O)(=O)c2ccc(N)cc2)cc1", "note": "[4,4′-diaminodiphenylsulphone]", "values": [
      {"measurement": "passive avoidance learning deficit (step-through latency / avoidance time)", "setting": "aged rats [1]; repeated oral 1 mg/kg", "value": "significant improvement of the learning deficit"},
      {"measurement": "water maze learning deficit (latency to find platform submerged in the water)", "setting": "aged rats [2]; repeated oral 1 mg/kg", "value": "significant improvement in water maze learning deficit"}
    ]}
  ]
}
